# Measured values published in the COVID Moonshot data (paper PMC11187573), “Identification of SARS-CoV-2 Mpro inhibitors through deep reinforcement learning for de novo drug design and computational chemistry approaches” (RSC Medicinal Chemistry, 2024).
# Biological target: SARS-CoV-2 Main Protease (SARS-CoV-2) (UniProt P0DTD1)
SMILES,inhibition (20.0 µM),inhibition (50.0 µM),IC50
CC(C)Cn1cc(NC(=O)NCC2CCCO2)c2ccccc2c1=O (stereo not drawn),-0.42%,6.75%,–
COC(=O)c1c(C)nn(-c2ccccc2)c1-c1cc(C)on1,18.8%,3.16%,–
O=C(Cc1cc(Cl)cc(Nc2ccc(C(F)(F)F)cn2)c1)Nc1cncc2ccccc12,–,–,1.22 µM
COC[C@]1(C(=O)Nc2cncc3ccccc23)CCOc2cc(Cl)c(Cl)cc21 (stereo in doubt),–,–,3.22 µM
Cn1cc(NC(=O)NCCc2ccc(Cl)cc2)c2ccccc2c1=O,-6.47%,-3.22%,–
COc1ccccc1OCCNC(=O)c1cc(=O)[nH]c2cccc(OC)c12,84.4%,90.9%,–
Cc1[nH]c2ncnc(NC(=O)c3cccc4c3oc(=O)n4C)c2c1C,2.86%,6.1%,–
CCOC(=O)Cc1csc(NC(=O)Nc2cn(CC(C)C)c(=O)c3ccccc23)n1,23.2%,2.55%,–
Cn1cc(NC(=O)N2CCN(C(=O)c3ccco3)CC2)c2ccccc2c1=O,-4.83%,-2.88%,–
O=C(NCC1(C(=O)Nc2cncc3ccccc23)CCOc2ccc(Cl)cc21)C1COCCN1CC(F)(F)F (stereo not drawn),–,–,21.6 µM
CCCCN(CCNC(=O)Nc1cn(C)c(=O)c2ccccc12)Cc1ccco1,6.22%,12.5%,–
CC1CN(C)CCN1C(=O)CC1(C(=O)Nc2cncc3ccccc23)CCOc2ccc(Cl)cc21 (stereo not drawn),–,–,6.18 µM
CC1(C)CN(C(=O)c2ccc(-c3cccc4nc(NC(=O)C5CC5)nn34)cc2)C1,-1.13%,0.838%,–
O=C(OCC(O)CO)c1ccccc1Nc1ccnc2cc(Cl)ccc12 (stereo not drawn),3.82%,-5.01%,–
Cc1nc2n(n1)CC(C(=O)NC(C)(C(=O)Nc1cncc3ccccc13)c1ccc(Cl)c(Cl)c1)CC2 (stereo not drawn),–,–,4.82 µM
COc1ccc(OC)c(CNC(=O)Nc2cn(CC(C)C)c(=O)c3ccccc23)c1,18.5%,0.63%,–
CC(C)N(C(=O)Cc1c(O)c2ccccc2[nH]c1=O)C(C)C,-0.198%,-0.251%,–
Cn1cc(NC(=O)NCc2ccccn2)c2ccccc2c1=O,-2.84%,-6.9%,–
CC(C)Cn1cc(NC(=O)Nc2cccnc2)c2ccccc2c1=O,6.1%,6.63%,–
Cn1ccc(CN(C(=O)Cc2cccnc2)c2ccc(-c3ccccn3)cc2)n1,6.62%,16.1%,–
CC(C)Cn1cc(NC(=O)NCCN2CCOCC2)c2ccccc2c1=O,-1.08%,-1.81%,–

SMILES,inhibition (20.0 µM),inhibition (50.0 µM),IC50
CC(C)Cn1cc(NC(=O)NCc2ccc3c(c2)OCO3)c2ccccc2c1=O,15.3%,11.2%,–
C[C@@H]1CC[C@@H](c2ccoc2)N2C1CC[C@@]1(CS[C@@]3(CC[C@H]4[C@H](C)CC[C@@H](c5ccoc5)N4[C@@H]3O)C1)[C@@H]2O (stereo in doubt),-19.4%,-23.4%,–
CCCc1c(C)[nH]c2[nH]n(-c3ccccc3)c(=O)c2c1=O,4.23%,2.81%,–
O=C(Nc1cnn2ccc(N3CCC[C@@H]3c3cc(F)ccc3F)nc12)N1CC[C@H](O)C1 (stereo in doubt),-17.2%,-4.24%,–
Nc1n[nH]c2cc(O)nc(O)c12,6.14%,30.9%,–
O=C(O)CNC(=O)c1ncc(-c2cccc(Cl)c2)cc1O,1.43%,-1.75%,–
COC[C@@]1(C(=O)Nc2cncc3ccccc23)CCOc2cc(Cl)c(Cl)cc21 (stereo in doubt),–,–,16.9 µM
Cn1cnc(CN(C(=O)c2cnnn2-c2ccccc2)c2ccc(OCc3ccccc3)cc2)c1,-1.63%,1.89%,–
COc1cc(Cl)c(C)cc1NC(=O)Nc1cn(CC(C)C)c(=O)c2ccccc12,5.7%,9.03%,–
O=C(Nc1nncn1C1CC1)C1CCOc2ccccc21 (stereo not drawn),-1.27%,2.15%,–
COc1ccc(NC(=O)Nc2cn(C)c(=O)c3ccccc23)c(OC)c1,7.06%,17.9%,–
O=C(Nc1nncn1C1CC1)C1CCOc2c(F)cccc21 (stereo not drawn),2.37%,3.56%,–
CC(C)CCC(=O)C[C@H]1c2ccccc2C(=O)N1c1ccc2ccc(Cl)nc2n1 (stereo in doubt),4.26%,-0.676%,–
C=CC(=O)N(c1ccc(CCC#N)cc1)C(C(=O)NC(C)(C)C)c1cccnc1 (stereo not drawn),1.48%,3.3%,–
CCn1c(=O)c(-c2cc[nH]n2)cc2c(C)nc(N)nc21,-0.487%,4.38%,–
O=C(Cc1cc(Cl)cc(NCc2ccc(Br)cc2)c1)Nc1cncc2ccccc12,–,–,1.43 µM
O=C(N[C@@H](Cc1cc(=O)[nH]c2ccccc12)C(=O)O)c1ccc(Cl)cc1 (stereo in doubt),1.24%,-22.3%,–
COc1cc(Cl)c(C)cc1NC(=O)Nc1cn(C)c(=O)c2ccccc12,23.7%,5.81%,–
CC(C)Cn1cc(NC(=O)N2CCCN(Cc3ccccc3F)C2)c2ccccc2c1=O,-1.37%,-3.78%,–
CC(NC(=O)c1cc2n(n1)CCO2)(C(=O)Nc1cncc2ccccc12)c1ccc(Cl)c(Cl)c1 (stereo not drawn),–,–,8.52 µM
O=C(Nc1cncc2ccccc12)[C@H]1COc2ccc(Cl)cc21 (stereo in doubt),–,–,26.9 µM

SMILES,inhibition (20.0 µM),inhibition (50.0 µM),IC50
COc1cc2c(cc1OC)C(C)N(C(=O)Nc1cn(C)c(=O)c3ccccc13)CC2 (stereo not drawn),51.2%,5.23%,–
Cc1[nH]c2ncnc(NC(=O)C3CCN(c4ccc(Cl)cn4)CC3)c2c1C,-8.15%,-5.21%,–
Cc1cccnc1NC(=O)Nc1cn(CC(C)C)c(=O)c2ccccc12,-0.204%,-1.16%,–
CC(NC(=O)COc1ccc(C(N)=O)cc1)(C(=O)Nc1cncc2ccccc12)c1ccc(Cl)c(Cl)c1 (stereo not drawn),–,–,12.3 µM
Cc1ccncc1CC(=O)Nc1cccc2c1CNCC2,-1.08%,2.76%,–
C[C@@H]1COCCN1c1cc(C2([S@](C)(=N)=O)CC2)nc(-c2cncc3[nH]ccc23)n1 (stereo in doubt),-0.821%,3.82%,–
CCOC(=O)c1ccc(NC(=O)Nc2cn(C)c(=O)c3ccccc23)cc1,17.1%,4.9%,–
CC(C)Cn1cc(NC(=O)NCCc2c[nH]c3ccccc23)c2ccccc2c1=O,1.66%,6.69%,–
COc1cc(OC)nc(O[C@H](C(=O)O)C(OC)(c2ccccc2)c2ccccc2)n1 (stereo in doubt),-28.4%,2.42%,–
Cn1cc(NC(=O)N(Cc2ccco2)CC2CCCO2)c2ccccc2c1=O (stereo not drawn),2.81%,0.168%,–
C[C@@H](Cn1ccc(-c2ccc(C#N)c(Cl)c2)n1)NC(=O)c1cc([C@@H](C)O)[nH]n1 (stereo in doubt),3.16%,-11.9%,–
Cn1cc(NC(=O)NCCc2ccsc2)c2ccccc2c1=O,14.5%,8.36%,–
CC(C)Cn1cc(NC(=O)NCc2ccco2)c2ccccc2c1=O,50.5%,90.3%,–
CC(NC(=O)CN)(C(=O)Nc1cncc2ccccc12)c1ccc(Cl)c(Cl)c1 (stereo not drawn),–,–,3.38 µM
CCN(Cc1ccc(F)cc1)c1cc(Cl)cc(CC(=O)Nc2cncc3ccccc23)c1,–,–,1.41 µM
Cn1c(-c2ccc(NC(=O)C3CCCCC(=O)N3)cc2)nc2ccccc21 (stereo not drawn),-3.33%,-2.97%,–
Cc1ccn2cnnc2c1NC(=O)C1CCOc2ccccc21 (stereo not drawn),-11.2%,-4.74%,–
COc1ccc(OC)c(CNC(=O)Nc2cn(C)c(=O)c3ccccc23)c1,25%,3.4%,–
CC(C)Cn1cc(NC(=O)Nc2nc3ccccc3s2)c2ccccc2c1=O,3.79%,12.2%,–
NC(=O)C[S@@+]([O-])C(c1ccccc1)c1ccccc1 (stereo in doubt),-1.76%,-1.92%,–
O=C(Nc1c[nH]nc1-c1ccccn1)c1cccc2nccn12,2.59%,9.01%,–

SMILES,inhibition (20.0 µM),inhibition (50.0 µM),IC50
COc1ncc(Br)cc1Nc1cc(Cl)cc(CC(=O)Nc2cncc3ccccc23)c1,–,–,0.681 µM
CC(NC(=O)Cc1ccc(-n2cnnn2)cc1)(C(=O)Nc1cncc2ccccc12)c1ccc(Cl)c(Cl)c1 (stereo not drawn),–,–,4.64 µM
CC(C)(C)c1ccc(N(C(=O)c2cccnc2)C(C(=O)NCCc2cccc(F)c2)c2cccnc2)cc1 (stereo not drawn),-5.55%,-6.34%,–
COc1ccc2nc(NC(=O)Nc3cn(CC(C)C)c(=O)c4ccccc34)sc2c1,21.3%,17.6%,–
O=C1CCCCC(C(=O)Nc2ccc(-c3nc[nH]n3)cc2F)N1 (stereo not drawn),-4.07%,-3.07%,–
COC(=O)c1sccc1NC(=O)Nc1cn(CC(C)C)c(=O)c2ccccc12,-3.98%,-0.958%,–
COc1ccc(NC(=O)c2ccc(C(=N)N(C)C)cc2)c(C(=O)Nc2ccc(Cl)cn2)c1,-17.3%,-3.35%,–
Cc1ccc(NC(=O)Nc2cn(CC(C)C)c(=O)c3ccccc23)c(Br)c1,8.16%,9.66%,–
CC(CCc1ccco1)NC(=O)Nc1cn(C)c(=O)c2ccccc12 (stereo not drawn),32.6%,67.9%,–
Cn1cc(NC(=O)Nc2cccc(C(F)(F)F)c2)c2ccccc2c1=O,-2.91%,0.168%,–
CCOC(=O)N1CCC(NC(=O)Nc2cn(C)c(=O)c3ccccc23)CC1,-1.08%,1.92%,–
CC(C)Cn1cc(NC(=O)NCCCN2CCCC2=O)c2ccccc2c1=O,-2.54%,3.77%,–
Cc1[nH]c2ncnc(NC(=O)c3cc4ccccc4c(=O)o3)c2c1C,-7.32%,-4.98%,–
CCc1ccccc1N(CC)C(=O)Nc1cn(C)c(=O)c2ccccc12,-3.06%,22.3%,–
O=C(Nc1cncc2ccccc12)[C@@H]1CCNc2cc(Cl)c(Cl)cc21 (stereo in doubt),–,–,0.05 µM
CC(C)Cn1cc(NC(=O)NCCC2=CCCCC2)c2ccccc2c1=O,25.7%,0.931%,–
CC1Cn2nccc2CN1C(=O)CC1(C(=O)Nc2cncc3ccccc23)CCOc2ccc(Cl)cc21 (stereo not drawn),–,–,2.11 µM
Cn1nc(C(=O)NC(C)(C(=O)Nc2cncc3ccccc23)c2ccc(Cl)c(Cl)c2)cc1C#N (stereo not drawn),–,–,10.3 µM
CN(Cc1cccc2ccccc12)c1cc(Cl)cc(CC(=O)Nc2cncc3ccccc23)c1,–,–,1.73 µM
O=C1C(Nc2ncnc3[nH]cnc23)CCN1Cc1ccccc1 (stereo not drawn),-6.26%,-5.36%,–
